# From US10493061B2, “Compositions and methods comprising 2-(acylamino)imidazoles” (priority 2014, dated 2019)
# Assays:
# [1] = tested on: pleural effusion (PE1100025) primary metastatic breast cancer cells; test: 12-point dose response, ATP cell viability assay; assay type: cell-based, human; conditions: 12-point dose response
# [2] = tested on: hTERT-HMEC normal mammary epithelial cells; test: Dose response, ATP cell viability assay; assay type: cell-based, human
# [3] = tested on: metal trafficking genes in MCF-7, T47D, MDA-MB-231 and MCF-10A cells; test: Real-time PCR of metal trafficking genes; assay type: cell-based, human; conditions: 30 μM ZNA, 3 or 24 hours, four cell lines
# Protocol: Real-Time PCR (RT-PCR): For experiments designed to measure gene expression, real-time PCR (RT-PCR) was conducted using a LightCycler 480 (Roche, Basel, Switzerland) and KAPA SYBR FAST qPCR Master Mix (Kapa Biosystems, Boston, Mass., USA). […] Genomic DNA was removed with a DNase digest and 1 μg of RNA was used to synthesize cDNA using a Superscript III Reverse Transcriptase kit from Invitrogen per the manufacturer's protocol; after an RNase H digestion, RT-PCR was performed in a 5 μL reaction using KAPA SYBR FAST qPCR Master Mix (Kapa Biosystems, Boston, Mass., USA). The following primer sets were used: MT1F 5′-[…] -3′ (SEQ ID NO:1) and 5′-[…] -3′ (SEQ ID NO:2); MT1X 5′-[…] -3′ (SEQ ID NO:3) and 5′-[…] -3′ (SEQ ID NO:4); MT2A 5′-[…] -3′ (SEQ ID NO:5) and 5′-[…] -3′ (SEQ ID NO:6); SLC30A2 5′-[…] -3′ (SEQ ID NO:7) and 5′-[…] -3′ (SEQ ID NO:8); SLC30A1 5′-[…] -3′ (SEQ ID NO:9) and 5′-[…] -3′ (SEQ ID NO:10). Data were normalized to an internal reference gene (GAPDH 5′-[…] -3′ (SEQ ID NO:11) and 5′-[…] -3′ (SEQ ID NO:12)) and relative gene expression was assessed using the comparative CT method set forth in Schmittgen T D, Livak K J. Analyzing real-time PCR data by the comparative CT method. Nat Protocols 2008; 3(6):1101-08. For tissue derived from mouse in vivo experiments, fresh tissue was homogenized using a TissueLyser II for 3 minutes at 30 Hz before isolating RNA. […]
# [4] = tested on: MCF-10A cells; test: Intracellular Zn^2+ by FluoZin-3 staining and flow cytometry; assay type: cell-based, human
# Protocol: Measurement of intracellular Zn^2+ by FluoZin-3 staining: Cells were seeded in 6-well plates at a density such that at the time of analysis, wells would be 70-80% confluent. Following the completion of treatment, the drug-containing media was removed and replaced with Hank's Balanced Salt Solution (HBSS, Life Technologies) containing 2.5 μM FluoZin-3. The cells were incubated with the indicator for 30 minutes at room temperature in the dark. After staining, the cells were trypsinized, resuspended in HBSS containing 2% FBS, and relative mean fluorescence was measured by flow cytometry (FACscan, BD Biosciences, San Jose, Calif., USA).
# In order to determine whether the transcriptional changes in metal trafficking genes were functionally relevant to ZNA's mechanism of action, intracellular Zn^2+ was quantified using the fluorescent indicator FluoZin-3 followed by flow cytometry analysis (FIG. 1G).
# To better understand the cancer-selective synergism observed between ZNA and Zn^2+, an experiment was conducted to measure intracellular Zn^2+ using the fluorescent Zn^2+ indicator FluoZin-3.
# Further probing the ability of ZNA to stimulate increases in intracellular Zn^2+, MCF-10A and MCF-7 cells were treated for three hours with 30 μM ZNA (both with and without exogenous ZnSO4) in zinc-free media; intracellular zinc was then quantified by FluoZin-3 staining (FIG. 3B).
# [5] = tested on: MCF-10A normal mammary epithelial cell line; test: Cell death by propidium iodide staining and flow cytometry; assay type: cell-based, human
# Protocol: Measurement of cell death by propidium iodide staining: Cells were cultured to 80% confluence in 6-well plates and the growth media was then replaced with low serum (2% FBS) drug-containing media. Each condition was assessed in triplicate. Following the completion of treatment, the media and floating cells were collected and combined with the trypsinized adherent cells. The cells were washed with 2% FBS/HBSS, and resuspended in a propidium iodide solution (Cell Signaling) for analysis by flow cytometry. The percentage of propidium iodide positive cells for each treatment condition were averaged and normalized to the vehicle-treated control. The normalized data were plotted as the average±standard error of three replicates.
# In order to validate the transition metal screen with a second cell viability assay, propidium iodide uptake was measured in four cell lines by flow cytometry following a 24-hour treatment with either 30 μM ZNA alone or in combination with 30 µM CuSO4 or 30 μM ZnSO4 (FIG. 2B).
# Since autophagy can stimulate both pro-death and pro-survival pathways, experiments were next conducted to assess how autophagic inhibitors impacted ZNA's cell death profile. […] As such, cells were treated with ZNA in combination with chloroquine, an inhibitor of autophagosome function, and cell death was assessed by propidium iodide stain following 72 hours of treatment. […]
# [6] = tested on: metal trafficking genes (MT1F, MT1X, MT2A, SLC30A1, SLC30A2) in MCF-7 cells; test: Transcriptome sequencing (RNA-seq); conditions: 30 μM ZNA, 3 hours, sustained at 12 hours
smiles,measurement,setting,value
"COc1ccc(-c2c(Cc3ccccc3)[nH]/c(=N\C(=O)c3ccccc3F)n2C)cc1 [ZNA, (E)-N-(4-benzyl-5-(4-methoxyphenyl)-1-methyl-1H-imidazol-2(3H)-ylidene)-2-fluorobenzamide]",cell viability,[1],effective at low micromolar concentrations
same,cell viability,[2],largely unaffected
same,transcription of metal trafficking genes,[3],stimulated transcriptional increases
same,FluoZin-3 fluorescence,"[4]; 30 μM ZNA alone, three hours, zinc-free media",no significant increase in FluoZin-3 fluorescence
same,intracellular zinc (FluoZin-3),"[4]; 30 μM ZNA alone, up to 48 hours",only modest increases in intracellular zinc
same,increase in FluoZin-3 fluorescence,"[4]; 30 μM ZNA with 30 μM ZnSO4, three hours",9 fold
same,fluorescence (FluoZin-3),"[4]; ZNA and ZnSO4, three hours, zinc-free media, compared to ZnSO4 alone",reduction in fluorescence
same,cell death (propidium iodide uptake),"[5]; 30 μM ZNA with 30 μM ZnSO4, 24 hours",unaffected
same,ZNA-induced cell death (propidium iodide),"[5]; ZNA with chloroquine, 72 hours",did not significantly affect cell death
same,"metallothionein gene expression (MT1F, MT1X, MT2A)",[6],increased metallothionein gene expression
